The source of these data is patent US10285986B2, “Compounds and anti-tumor NQO1 substrates” (The Board of Trustees of the University of Illinois, priority 2011, dated 2019).

The term solubility denotes how much of the substance goes into solution per volume. By MTD is commonly meant the highest dose tested that stayed within the study's limit of toxicity. Higher therefore signals better tolerability. One may read the aqueous solubility as how much of the substance goes into solution per volume.

For data set [1] the following is noted: cited from earlier work.
Data set [2] deals with rats. The conditions noted are these: cited from earlier work.
In data set [3] the test system is MCF-7 cells. Description: Cytotoxicity to MCF-7 cells with or without 25 μM dicoumarol (sulforhodamine B assay). The class given is cell-based, human. A digest of the protocol:
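MCF-7 cells, which express high NQO1, were exposed to compounds for 2 hours with or without 25 μM dicoumarol. They were then washed and kept 72 hours in fresh media. Cell death was measured by sulforhodamine B assay.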

The target of data set [4] is NQO1 (Homo sapiens, UniProt P15559). Description: NQO1 enzymatic measurements in vitro. The format is biochemical. As to conditions: 1 μM substrate. The method, then: As further evidence that the activity of these DNQ derivatives is dependent on their ability to be reduced by NQO1, full enzymatic measurements in vitro were performed. We found a strong correlation between catalytic efficiency of substrates in vitro and their cell culture toxicity. […] This provides strong evidence that the cytotoxicity of DNQ and its derivatives are dependent primarily upon the activity of NQO1 within the cell.
NQO1, sequence (P15559 whole entry): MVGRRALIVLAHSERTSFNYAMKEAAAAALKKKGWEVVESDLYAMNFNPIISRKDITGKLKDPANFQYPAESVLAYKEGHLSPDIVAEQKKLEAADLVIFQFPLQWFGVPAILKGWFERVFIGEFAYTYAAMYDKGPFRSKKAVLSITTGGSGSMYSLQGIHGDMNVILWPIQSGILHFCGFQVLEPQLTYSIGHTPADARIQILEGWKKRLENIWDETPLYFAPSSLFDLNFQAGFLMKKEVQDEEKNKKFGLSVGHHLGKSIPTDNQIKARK

Data set [5] can be described thus: Aqueous solubility in pH 7.4 PBS by LC-MS. The class given is physicochemical. As to conditions: phosphate buffered saline, pH 7.4, aqueous buffer, thermodynamic from solid, PBS pH 7.4; Table 4.3. The essentials: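 Solid compound was sonicated 30 min in pH 7.4 PBS (the bath warmed to 45 °C, samples were cooled before filtration) and passed through a 0.45 μm filter. Filtrate was quantified by LC-MS with UV at 275 nm against a 1–100 μM DNQ calibration curve, which was also applied to derivatives. Strongly coloured filtrates were diluted 10-fold in PBS.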

Data set [6] is described as follows: Solubility in 20% HPβCD solution (pH modulation protocol). The class given is physicochemical. As to conditions: 20% HPβCD. The method, then: The protocol for formulating DNQ compounds in HPβCD is as follows: the DNQ compound is slurried in a 20% solution of HPβCD in pH 7.4 PBS and the pH is then increased by the addition of 10 M NaOH to induce dissolution of the DNQ compound. The pH is returned to pH 7.5-8.0 by the careful addition of 1 M HCl. A 3.3 mM solution of the DNQ compound can be made by this method which is stable at least 24 hours. This represents a 30-fold increase in solubility of DNQ over PBS alone.
Although we were pleased to find active derivatives of DNQ that were up to 4-fold more soluble in water—sufficiently soluble for continuous IV infusion for human administration—this level of solubility was insufficient for animal studies by bolus injection. […] We used the same pH modulation protocol outlined for DNQ described in the specification above. The results are organized in Table 4.3 and FIG. 8. While all compounds were more soluble in HPβCD than in buffer alone, the fold increase in solubility varied widely.

Data set [7] can be described thus: Solubility in organic solvents. The class given is physicochemical. As to conditions: for solubility: organic solvent or mixture, thermodynamic from solid. On the procedure: The solubility of DNQ derivatives in organic solvents was determined by measuring the amount of a given solvent required to dissolve a known amount of compound. Solvent was added to the compound in 50 μL aliquots and the slurry was sonicated. […] Solubility was assessed in DMSO, dichloromethane, and 33% methanol in dichloromethane (FIGS. 9, 10, and 11, respectively).

The nature of data set [8]: Maximum tolerated dose in mice. The conditions noted are these: mouse, in vivo, ip. The source says: (§1) Because of the difficulty of repeated tail vein injections in mice, our group is using IP administration of compound.
(§2) All of these derivatives are currently being assessed for their maximum tolerated dose (MTD) in healthy mice. Compounds are formulated in HPβCD and delivered by IP injection to two mice once daily for five days.

In data set [9] the test system is healthy mice. The experiment in a line: in vivo. As to conditions: mouse, 5 days.
Text: as §1, §2

In data set [10] the test system is PAR-PARP1. Description: PARP1 hyperactivation (PAR-PARP1 formation) in vivo in orthotopic Lewis Lung Carcinoma model, immunoblotting. On the set-up: species or system NOD/SCID mice. As to conditions: iv at or near MTD. On the procedure:
Antibodies that specifically detect poly(ADP-ribosyl)ated α-PAR (BD Pharmingen, San Jose, Calif.) proteins (e.g., the most abundant species, poly(ADP-ribosyl)ated PARP1, PAR-PARP1) and α-PARP1 (sc-8007, Santa Cruz Biotechnology) antibodies were used at 1:4000 and 1:2000 dilutions, respectively. α-Tubulin was monitored for loading.
To generate a known control to monitor the formation of poly(ADP-ribose)ylated-polymerase 1 (PAR-PARP1) in cells, LLC tumor cells were treated in vitro with hydrogen peroxide (H2O2, 0.5 μM) for 15 minutes, and whole cell protein lysates were separated by SDS-PAGE using the α-PAR (BD Pharmingen, San Jose, Calif.) antibody described above. PAR-PARP1 formation was then assessed by immunoblot analyses as previously described in Huang et al., Cancer Research, 2012.
LLC cells (1.0×10^6) were intravenously (iv) injected into the tail veins of female 18-20 gram NOD/SCID mice. Establishment of tumor nodules in the lungs of exposed mice were confirmed by bioluminescence and mice (5/group) were treated intravenously (via tail vein injection) with: (i) hydroxypropyl-beta-cyclodextrin (HPRCD) vehicle alone; (ii) DNQ (7.5 mg/kg); (ii) DNQ-87 (14 mg/kg); (iii) DNQ-107 (10 mg/kg); or (vi) DNQ 9-251 (20 mg/kg) dissolved in HPRCD. At specific times indicated (in mins) after injection of vehicle or drug, mice were euthanized, lungs removed and tumor nodules harvested. […] Extracts from cells treated with H2O2 were used as controls for monitoring PAR-PARP1 formation in LLC tumor cells.

Data set [11] in a line: Solubility in organic solvents. The class given is physicochemical. As to conditions: Table 1.
The conditions of data set [12]: pH 7.4 PBS; cited from earlier work.
For data set [13] the following is noted: 20% HPβCD in H2O; cited from earlier work.
The conditions of data set [14]: reported; cited from earlier work.
Data set [15] has as its system NQO1+ cells. The conditions noted are these: in vitro; cited from earlier work.

In brackets after ≈: the same amount, converted by molar mass. Several values for one entry are separate records, joined by “and”; a condition that tells them apart may be missing. Equal values may be shown once. Read-outs that look alike come from different tables or passages of the source.

As for “2-hydroxypropyl-beta-cyclodextrin [HPβCD]”, the “tolerated dose by IP injection” value in data set [1] was above 5000 mg/kg. Further, in [2], the “MTD by IV injection” value is reported as “approximately 2.25 g/kg”.

On to `Cc1cc(=O)[nH]c2c1C(=O)c1c(C)cc(=O)n(CCC(C)(C)C)c1C2=O` [Compound 9-251], for which the IC50 was 190 ± 20 nM in [3] (Homo sapiens, MCF7, Table 1, read-out: MCF7 IC50); 220 ± 40 nM in data set [3] (Homo sapiens, MCF7, Table 4.2, no DIC, ± s.e., read-out: IC50 vs. MCF-7 cells); below 500 nM in data set [3] (Homo sapiens, MCF7, classification in figure legends of FIGS. 7-11, read-out: IC50 ("active" / generally "inactive" compounds)); 1600 ± 600 nM in data set [3] (Homo sapiens, MCF7, read-out: IC50 vs. MCF-7 cells +25 μM DIC, Table 4.2, +25 μM DIC, ± s.e.). Moreover, the “Fold Protection of MCF7 cells w/ 25 μM dicoumarol” value in [3] (Table 1) was determined as 8. The “Fold protection by DIC” value in [3] (Table 4.2) was found to be 7.1. In [4], the “NQO1 Initial Velocity @ 1 μM” value came to 2000 ± 100. Besides, in data set [5], the concentration in solution (solubility at 30 min) came to 0.007 mM (≈ 2.48 µg/mL). Besides, the “fold increase in solubility in HPβCD over PBS alone” value in data set [6] is listed as 3000 fold. The solubility in data set [6] (20% HPβCD in pH 7.4 PBS, pH 7.4, aqueous with cosolvent or surfactant or cyclodextrin, thermodynamic from solid, Table 4.3) came to 19 mM (≈ 6730 µg/mL); in data set [7] (2:1 CH2Cl2:MeOH, Table 4.3, read-out: Solubility in 2:1 CH2Cl2:MeOH), 120 mM (≈ 42500 µg/mL); in data set [7] (CH2Cl2:MeOH 2:1, Table 1, read-out: CH2Cl2:MeOH 2:1 solubility) it was 120 mM (≈ 42500 µg/mL); in data set [7] (CH2Cl2, Table 1, read-out: CH2Cl2 solubility), 31 mM (≈ 11000 µg/mL); in data set [7] (DMSO, Table 1, read-out: DMSO solubility), 15 mM (≈ 5320 µg/mL); in [11] (organic solvent or mixture, thermodynamic from solid, THF), 23 mM (≈ 8150 µg/mL). Moreover, the “Solubility in CH2Cl2” value in data set [7] (CH2Cl2, Table 4.3) is given as 31 mM (≈ 11000 µg/mL). Also, the “Solubility in DMSO” value in [7] (DMSO, Table 4.3) is on record as 15 mM (≈ 5320 µg/mL). In addition, the MTD at 5 days in data set [8] is 22 mg/kg and 62 µmol/kg. Also, in [9], the “tolerated concentration relative to DNQ” value was 3.5 fold. For the same compound, the “PAR-PARP1 formation in tumor tissue” value in data set [10] was “higher levels of PAR-PARP1 formation”.

For the compound `CC1(C)CCC2=C(O1)c1ccccc1C(=O)C2=O` [β-lap, β-lapachone, reference compound], the “Fold Protection of MCF7 cells w/ 25 μM dicoumarol” value in data set [3] (Table 1) worked out at 2.1. Also, in [3] (Table 1, read-out: MCF7 IC50), the IC50 was determined as 3700 nM. Further, the “NQO1 Initial Velocity @ 1 μM” value in [4] stood at 150. Further, the “CH2Cl2:MeOH 2:1 solubility” value in [7] (CH2Cl2:MeOH 2:1, Table 1) is recorded as 1400 mM. The compound further registered a CH2Cl2 solubility in data set [7] (CH2Cl2, Table 1) of 1650 mM. The compound also showed a DMSO solubility in [7] (DMSO, Table 1) of 170 mM. The aqueous solubility in [12] was around 0.16 mM (≈ 38.8 µg/mL). For the same compound, the “fold increase in solubility in HPβCD” value in data set [13] is listed as around 150 fold. Moreover, the THF solubility in data set [11] worked out at 660 mM. Moreover, the “time to complete degradation in whole blood” value in [14] is at most 30 min. Besides, the LD50 in data set [15] is 2 to 10 µM.
